From patent US11129835B2, “Methods and compositions for the inhibition of PIN1” (Beth Israel Deaconess Medical Center, Inc., priority 2012, dated 2021)
Square brackets hold non-standard residues; d marks the D form. Peptide text beside a SMILES is read from it. pT = C[C@@H](OP(=O)(O)O)[C@H](N)C(=O)O; 2Nal = N[C@@H](Cc1ccc2ccccc2c1)C(=O)O; Bta = N[C@@H](Cc1csc2ccccc12)C(=O)O; Pip = O=C(O)[C@@H]1CCCCN1

Legend:
full length Pin1 = biological target: T1, full length Pin1 (Homo sapiens, UniProt Q13526); assay: single-step fluorescence polarization-based displacement assay (FP-HTS), 384-well, HF488 probe; format: binding
T1 construct: FP-HTS in a 384-well plate format with full length Pin1
Description: A high-throughput screen for identifying Pin1 inhibitors was developed using a single-step fluorescence polarization-based displacement assay (FP-HTS).
The FP-HTS with a 5 nM probe and 200 nM Pin1 was used to conduct a pilot screen on a selected set of chemical libraries.
The anti-cancer effect of RAs was examined to determine whether it depends on RAR in the breast cancer cells.

Pin1 [1] = biological target: T2, Pin1 (Homo sapiens, UniProt Q13526); assay: confirmatory Pin1 fluorescence polarization competition assay (Alexa488 reconfirmed); settings: for Alexa488 Reconfirmed Curve Class: confirmatory retest; for Emax: read-out: Alexa488 Reconfirmed Efficacy;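 for all read-outs here: Pin1 competition with a HiFluor488-labelled peptide probe, read as fluorescence polarization after 10 min at room temperature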
Description: (§1) The goal of this assay was to identify small-molecule inhibitors of Pin1 using a fluorescence polarization competition assay (FIG. 1). […] Candidate compounds were screened in a concentration-titration series (e.g., 57 μM to 0.7 nM).
(§2) Pin1 (0.6 μM) was dispensed into black, solid 1536-well plates (32 rows by 48 columns) at 2 μL/well in Pin1 buffer (10 mM HEPES (pH 7.5), 10 mM NaCl, 0.01% Tween20, 1 mM DTT, and 1% glycerol). Next, 23 nL of compound or DMSO was delivered to each well using a pin tool (tip wash sequence: DMSO, IPA, MeOH, 3 s vacuum dry). Two μL of Pin1-1b-HiFluor488 peptide in buffer (10 mM HEPES (pH 7.5), 10 mM NaCl, 0.01% Tween20, 1 mM DTT, and 1% glycerol, 0.02 μM Pin1-1b-HiFluor488) or DMSO was then dispensed to each well using a pin tool (tip wash sequence: DMSO, IPA, MeOH, 3 s vacuum dry), and plates were incubated at room temperature for 10 min (Table 2). Each plate included controls with no candidate inhibitory compound (32 wells), with unlabeled Pin1-1c titration (3.5 mM to 0.020 mM in a 1:2 dilution series including 2 replicates per concentration; 32 wells), and without Pin1 (64 wells).
(§3) The fluorescence polarization signal of each well was measured on a ViewLux® plate reader using a 480/20 nm excitation filter and 540/25 nm S and P emission filters with a 20 second exposure with 2× binning (Table 2). Percent inhibitory activity was determined from corrected fluorescence polarization values.
(§4) Concentration-response curves were fitted to the signals arising from the resulting fluorescence polarization. The concentration-effect curves were then classified based on curve quality (r^2), response magnitude, and degree of measured activity. Compounds were subsequently categorized based on their curve class.

Pin1 [2] = biological target: T2, Pin1; assay: Pin1 fluorescence polarization competition assay, primary qHTS (HiFluor-488 / Alexa488 probe);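 note: Pin1 protein with fluorescent peptide probe, compound displacement read by fluorescence polarization, percent inhibition derived from corrected polarization values, concentration-response curves in 1536-well format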
Description: as §1, §2, §3, §4
Curves showing change polarized fluorescence may be categorized into 5 classes. Class 1 includes complete curves, having 2 asymptotes and an r^2 value of ≥0.9, with an efficacy of either >80% (class 1.1) or ≤80% (class 1.2). Class 1 curves may also be classified as noisy curves when efficacy is >80% and r^2<0.9 (class 1.3) or when efficacy is ≤80% and r^2<0.9 (class 1.4). Class 2 includes incomplete curves having 1 asymptote and an r^2 value of either >0.9 (subclass a) or <0.9 (subclass b), with an efficacy of either >80% (class 2.1) or ≤80% (class 2.2). Class 2 curves may also be classified as noisy curves when efficacy is >80% and r^2<0.9 (class 2.3) or when efficacy is ≤80% and r^2<0.9 (class 2.4). Class 3 includes single point activity curves having 1 asymptote and an efficacy >3 SD from the mean activity of the sample field at the highest tested concentration. […] A fifth class captures any curves not otherwise classified (FIG. 4).

Pin1 [3] = biological target: T2, Pin1; assay: Pin1 fluorescence polarization competition assay with Tamra-probe (secondary); settings: for Emax: read-out: Tamra Secondary Efficacy; for Tamra Secondary Curve Class: Tamra-probe
Description: An assay was developed for the identification of inhibitors of Pin1. […] Candidate compounds were screened in a concentration-titration series (e.g., 57 μM to 0.7 nM).
as §2, §3, §4
A further secondary assessment was accomplished by replacing the HiFluor-488-labeled probe with Tamra-probe, a red-shifted fluorophore.

[4] = Alexa488 Primary Potency, primary qHTS
[5] = Average HTS Potency, average over Alexa488 primary, Alexa488 reconfirmed and Tamra secondary assays
[6] = read-out: Alexa488 Primary Efficacy

T2 sequence (Q13526 whole entry): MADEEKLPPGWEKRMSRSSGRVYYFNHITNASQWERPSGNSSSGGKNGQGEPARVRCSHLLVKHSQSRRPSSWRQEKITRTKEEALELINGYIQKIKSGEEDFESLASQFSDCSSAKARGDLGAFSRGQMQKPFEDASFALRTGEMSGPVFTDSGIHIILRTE
T1 sequence (Q13526 whole entry): as above

Row | SMILES | displacement of HF488 probe from Pin1 (full length Pin1) | Kd (full length Pin1; four residue core structure (pTide) of the HF488 fluorescent probes) | IC50 (Pin1 [1]) | Alexa488 Reconfirmed Curve Class (Pin1 [1]) | Emax (Pin1 [1]) | IC50 (Pin1 [2]; [4]) | IC50 (Pin1 [2]; [5]) | Alexa488 Primary Curve Class (Pin1 [2]; primary qHTS) | Emax (Pin1 [2]; [6]) | Emax (Pin1 [2]; read-out: Average HTS Efficacy) | IC50 (Pin1 [3]) | Emax (Pin1 [3]) | Tamra Secondary Curve Class (Pin1 [3])
1 | C[C@@H](OP(=O)(O)O)[C@H](NC(=O)[C@@H](N)Cc1csc2ccccc12)C(=O)N1CCCC[C@H]1C(=O)N[C@@H](Cc1ccc2ccccc2c1)C(=O)O [pTide, Bth-L-phos.Thr-Pip-Nal] (H-[Bta][pT][Pip][2Nal]-OH; N-terminus and C-terminus assumed) | displaced HF488 probe from Pin1 | 0.258 µM | – | – | – | – | – | – | – | – | – | – | –
2 | O=S(=O)(Nc1nc(-c2sccc2Cl)cs1)c1cc(Cl)ccc1Cl [Compound 24] | – | – | 14 µM | 1.2 (≤80% (class 1.2)) | 101% | 43 µM | 23 µM | 1.2 (≤80% (class 1.2)) | 76% | 92% | 12 µM | 100% | –
3 | Cc1cc(C(=O)NCc2ccc(C(=O)O)o2)c(C)o1 [Compound 33] | – | – | 7 µM | 2.2 (≤80% (class 2.2)) | 84% | 48 µM | 21 µM | 1.2 (≤80% (class 1.2)) | 20% | 58% | 10 µM | 70% | 2.2 (≤80% (class 2.2))
4 | COc1ccccc1Nc1ccc2c(O)cc(S(=O)(=O)O)cc2c1 [Compound 14] | – | – | 1 µM | 1.2 (≤80% (class 1.2)) | 59% | 21 µM | 10 µM | 1.2 (≤80% (class 1.2)) | 71% | 72% | 8 µM | 85% | –
5 | CC(=O)c1ccc2c(c1)C1C=CCC1C(C(=O)O)N2 (stereo not drawn) [Compound 1] | – | – | 1.3 µM | – | 90% | 6 µM | 3 µM | 1.2 (≤80% (class 1.2)) | 66% | 84% | 1.2 µM | 95% | –
6 | NS(=O)(=O)c1cc(C(=O)NC2CCSc3ccccc32)ccc1Cl (stereo not drawn) [Compound 11] | – | – | 3 µM | – | 93% | 3 µM | 3 µM | 1.2 (≤80% (class 1.2)) | 65% | 83% | 4 µM | 91% | –
7 | O=C(O)C1Nc2c(O)cc(Cl)c([N+](=O)[O-])c2C2C=CCC12 (stereo not drawn) [Compound 2] | – | – | 2 µM | – | 89% | 7 µM | 4 µM | – | 86% | 81% | 3 µM | 69% | 1.2 (≤80% (class 1.2))
8 | CC(C)COc1ccc(C(=O)N/C(=C\c2cccc([N+](=O)[O-])c2)C(=O)O)cc1 [Compound 37] | – | – | 15 µM | 2.2 (≤80% (class 2.2)) | 63% | 85 µM | 37 µM | 1.2 (≤80% (class 1.2)) | 19% | 47% | 12 µM | 58% | 2.2 (≤80% (class 2.2))
9 | Cc1ccc(C)n1-c1cccc(C(=O)O)c1 [Compound 17] | – | – | 2 µM | – | 83% | 10 µM | 5 µM | – | 64% | 79% | 3 µM | 89% | –
10 | Cc1ccc(C(=O)c2no[n+]([O-])c2C(=O)c2ccc(C)cc2)cc1 [Compound 29] | – | – | 0.1 µM | – | 90% | 3 µM | 0.9 µM | – | 83% | 85% | 0.1 µM | 82% | –
11 | O=C1OC(/C(=C\Nc2cc(Cl)ccc2O)[N+](=O)[O-])c2ccccc21 (stereo not drawn) [Compound 12] | – | – | 1.2 µM | – | 93% | 15 µM | 6 µM | 1.2 (≤80% (class 1.2)) | 78% | 88% | 1.1 µM | 92% | –
